In PubChem BioAssay (NCI):
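Method: 48-hour compound exposure of cells in 96-well plates, five concentrations, linear interpolation of endpoints. TGI: total growth inhibition.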

Columns and labels:
Assay in all cases: growth of human tumour cells (NCI), 48 h
[1] = test system: RPMI-8226 leukemia
[2] = test system: UACC-257 melanoma
[3] = test system: SK-MEL-2 melanoma
[4] = test system: OVCAR-8 ovarian
[5] = test system: SF-539 CNS
[6] = test system: UACC-62 melanoma
[7] = test system: HCT-116 colon
[8] = test system: SK-OV-3 ovarian
[9] = test system: LOX IMVI melanoma
[10] = test system: OVCAR-5 ovarian
[11] = test system: IGROV1 ovarian
[12] = test system: UO-31 renal
[13] = test system: U251 CNS
[14] = test system: HCC-2998 colon
[15] = test system: HL-60(TB) leukemia
[16] = test system: A498 renal
[17] = test system: NCI/ADR-RES ovarian
[18] = test system: MCF7 breast
[19] = test system: ACHN renal
[20] = test system: MOLT-4 leukemia
[21] = test system: COLO 205 colon
[22] = test system: BT-549 breast
[23] = test system: EKVX NSCLC
[24] = test system: 786-0 renal
[25] = test system: SW-620 colon
[26] = test system: SN12C renal
[27] = test system: OVCAR-4 ovarian
[28] = test system: HT29 colon
[29] = test system: SR leukemia
[30] = test system: M14 melanoma
[31] = test system: MDA-MB-231 breast
[32] = test system: HOP-62 NSCLC
[33] = test system: DU-145 prostate
[34] = test system: PC-3 prostate
[35] = test system: CCRF-CEM leukemia
[36] = test system: SK-MEL-5 melanoma
[37] = test system: MDA-MB-435
[38] = test system: TK-10 renal
[39] = test system: SK-MEL-28 melanoma
[40] = test system: NCI-H226 lung
[41] = test system: HCT-15 colon
[42] = test system: CAKI-1 renal
[43] = test system: KM12 colon
[44] = test system: SF-295 CNS
[45] = test system: MDA-N
[46] = test system: HOP-92 NSCLC
[47] = test system: A549 NSCLC
[48] = test system: NCI-H23 lung
[49] = test system: SNB-19 CNS
[50] = test system: T-47D breast
[51] = test system: OVCAR-3 ovarian
[52] = test system: K-562 leukemia
[53] = test system: SF-268 CNS
[54] = test system: RXF 393 renal
[55] = test system: HS 578T breast
[56] = test system: MALME-3M melanoma
[57] = test system: SNB-75 CNS
[58] = test system: NCI-H522 lung
[59] = test system: NCI-H460 lung

Measured: TGI

CCSC1=CC2(O)N(CCc3ccc(OC)c(OC)c3)C(=O)CC2(C(=O)OC)CC1=O (stereo not given)
35.4 µM: [31]
34.7 µM: [32]
38.9 µM: [3]
32.9 µM: [28]
40.3 µM: [18]
59 µM: [25]
34 µM: [24]
73.5 µM: [15]
34.6 µM: [2]
56.4 µM: [30]
29.7 µM: [46]
31 µM: [4]
39.8 µM: [6]
35.5 µM: [34]
33.6 µM: [11] | [51]
33.4 µM: [43]
36.3 µM: [26]
32.6 µM: [33]
32.8 µM: [22]
51.7 µM: [13]
48.5 µM: [50]
32.1 µM: [7]
37.3 µM: [9]
46 µM: [37]
36 µM: [14]
72.7 µM: [41]
33.1 µM: [12]
33.2 µM: [48]
90.8 µM: [20]
37.5 µM: [38]
78.7 µM: [5]
58.6 µM: [29]
91.3 µM: [1]
not listed: [53] | [54] | [55] | [56] | [57] | [58] | [59]
> 100 µM: all other assays above

Clc1cc(Cl)ncn1
not listed: [2] | [3] | [15] | [16] | [22] | [23]
> 100 µM: all other assays above
